# Experimental data from publication PMC9189845, “Structure–Activity Relationships of 8-Hydroxyquinoline-Derived Mannich Bases with Tertiary Amines Targeting Multidrug-Resistant Cancer” (Journal of Medicinal Chemistry, 2022).
# Structures can show the parent of a compound that is named as a salt. Where two headings read alike, the source gives them in different places.
# Legend:
# MES-SA/Dx5 cells = assay: PrestoBlue viability assay, MES-SA/Dx5 cells (MDR, P-gp positive); conditions: for SR_TQ: selectivity ratio MES-SA vs MES-SA/Dx5, with TQ; for SR: selectivity ratio MES-SA vs MES-SA/Dx5, without TQ; for SR (MES-SA_TQ / Dx5_TQ) (values in parentheses): presence of 1 μM TQ
# MES-SA cells = assay: PrestoBlue viability assay, MES-SA cells
# A431-B1 cells = assay: PrestoBlue viability assay, A431-B1 (A431-ABCB1) cells
# A431 cells = assay: PrestoBlue viability assay, A431 cells
# [1] = cited from earlier work
# [2] = UV-visible spectrophotometric titrations (pKa); format: physicochemical; conditions: water with 0.2% (v/v) DMSO, 25 °C
# Protocol: Spectrophotometrical determination of pKa values was performed as previously reported.[20],[50] An Agilent Cary 8454 diode array spectrophotometer was used to record the UV–visible spectra in the interval 200–800 nm. The path length was between 1 and 5 cm. The spectrophotometric titrations were performed in water with 0.2% (v/v) DMSO on samples containing the compounds at 2–50 μM in the pH range from 2 to 11.5 at 25.0 ± 0.1 °C at an ionic strength of 0.10 M (KCl). Proton dissociation constants and the individual spectra of the species in the different protonation states were calculated with the computer program PSEQUAD.[62]
# [3] = Homo sapiens, MES-SA/Dx5, 72 h, read-out: IC50 / μM MES-SA/Dx5, absence of TQ, 72 h incubation
# [4] = Homo sapiens, MES-SA/Dx5, read-out: IC50 / μM MES-SA/Dx5 (values in parentheses), presence of 1 μM P-gp inhibitor tariquidar (TQ)
# [5] = Homo sapiens, MES-SA/Dx5, read-out: pIC50 value MES-SA/Dx5, MES-SA/Dx5 cells, without TQ (converted)
# [6] = Homo sapiens, MES-SA, 72 h, read-out: IC50 / μM MES-SA, absence of TQ, 72 h incubation
# [7] = Homo sapiens, MES-SA, read-out: IC50 / μM MES-SA (values in parentheses), presence of 1 μM P-gp inhibitor tariquidar (TQ)
# [8] = Homo sapiens, MES-SA, read-out: pIC50 value MES-SA+TQ, MES-SA cells, with TQ (converted)
# [9] = Homo sapiens, MES-SA, read-out: pIC50 value MES-SA, MES-SA cells, without TQ (converted)
# [10] = 72 h, read-out: IC50 / µM A431-B1, 72 h incubation
# [11] = read-out: pIC50 A431-B1, SARM figure (converted)
# [12] = Homo sapiens, A-431, 72 h, read-out: IC50 / µM A431, 72 h incubation
# [13] = Homo sapiens, A-431, read-out: pIC50 A431, SARM figure (converted)
# [14] = fraction of IC50 in P-gp negative vs positive cells
# [15] = read-out: IC50 / μM MES-SA/Dx5 (values in parentheses), presence of 1 μM P-gp inhibitor tariquidar (TQ)
# [16] = read-out: IC50 / μM MES-SA/Dx5, absence of TQ, 72 h incubation
# [17] = read-out: IC50 / μM MES-SA, absence of TQ, 72 h incubation
# [18] = read-out: IC50 / µM A431-B1, 72 h incubation
# [19] = read-out: IC50 / µM A431, 72 h incubation
# [20] = Homo sapiens, MES-SA/Dx5, read-out: pIC50 value MES-SA/Dx5 + TQ, MES-SA/Dx5 cells, with TQ (converted)
# [21] = 0.2% DMSO, I = 0.10 M KCl, read-out: pKa (OH), experimentally determined
# [22] = piperidinium / pyrrolidinium / morpholinium N, read-out: pKa (other; N+amH alkylamine nitrogen), experimentally determined
# [23] = quinolinium nitrogen, I = 0.10 M KCl, read-out: pKa (NquinH+), experimentally determined
# [24] = Homo sapiens, MES-SA, read-out: pIC50 MES-SA, absence of TQ (converted), SARM figure
Structure (SMILES),melting point [°C],IC50 (MES-SA/Dx5 cells; [3]) [µM],IC50 (MES-SA/Dx5 cells; [4]) [µM],IC50 (MES-SA/Dx5 cells; [5]) [µM],SR_TQ (MES-SA/Dx5 cells),SR (MES-SA/Dx5 cells),IC50 (MES-SA cells; [6]) [µM],IC50 (MES-SA cells; [7]) [µM],IC50 (MES-SA cells; [8]) [µM],IC50 (MES-SA cells; [9]) [µM],IC50 (A431-B1 cells; [10]) [µM],IC50 (A431-B1 cells; [11]) [µM],IC50 (A431 cells; [12]) [µM],IC50 (A431 cells; [13]) [µM],IC50 (MES-SA/Dx5 cells; [20]) [µM],"pKa [2, 21]","pKa [2, 23]",also measured
"Oc1cc2c(cc1O)CN(Cc1ccc3cccnc3c1O)CC2 (as salt: hydrochloride) [Compound 82, 2-((8-Hydroxy-quinolin-7-yl)methyl)-1,2,3,4-tetrahydroisoquinoline-6,7-diol Hydrochloride]",203 to 206,–,–,–,–,–,–,–,–,–,–,–,–,–,–,–,–,–
"Oc1c(CN2CCCC2)cc(Br)c2cccnc12 [Compound 16, 5-Bromo-7-(pyrrolidin-1-ylmethyl)quinolin-8-ol]",119 to 121,0.41 ± 0.14,3.14 ± 0.89,0.389,1.46,9.45,3.9 ± 0.87,4.58 ± 1.05,4.47,3.8,1.54 ± 0.51,1.45,4.32 ± 0.39,4.27,–,–,–,–
"Oc1ccc(Cl)c2cccnc12 [Compound 13, reference compound]",–,5.15 ± 0.48,–,5.13,–,1.6,8.26 ± 0.1,–,–,8.32,–,–,–,–,–,–,–,"pKa (OH), experimental ([1]; ref 59 (Mészáros et al., Dalton Trans. 2020)): 7.6"
"CN1CCN(Cc2ccc3cccnc3c2O)CC1 [Compound 34, 7-((4-Methylpiperazin-1-yl)methyl)quinolin-8-ol]",120 to 122,8.67 ± 1.69,14.1,8.51,1.1,1.93,16.7 ± 1.86,15.5 ± 0.19,15.5,16.6,11.3 ± 0.95,11.2,25.5 ± 1.98,25.7,–,–,–,SR (MES-SA_TQ / Dx5_TQ) (values in parentheses) (MES-SA/Dx5 cells; [14]): 1.10
Oc1c(CN2CCCCC2)ccc2cccnc12 [Compound 3],–,0.85 ± 0.18,2.69,0.832,1.56,6.13,5.21 ± 0.95,4.18,4.07,5.13,1.62 ± 0.92,2.4,7.3 ± 0.98,9.77,–,–,–,"IC50 (MES-SA/Dx5 cells; [15]): 1.87 µM; IC50 (MES-SA/Dx5 cells; [16]): 0.86 ± 0.19 µM; IC50 (MES-SA cells; read-out: IC50 / μM MES-SA (values in parentheses), presence of 1 μM P-gp inhibitor tariquidar (TQ)): 3.81 µM; IC50 (MES-SA cells; [17]): 5.46 ± 1.01 µM; IC50 (A431-B1 cells; [18]): 2.48 ± 0.7 µM; IC50 (A431 cells; [19]): 10.1 ± 2.95 µM; pKa (other; N+amH), experimental ([1]; water, 25 °C, ref 50 (Pape et al., Dalton Trans. 2018)): > 11"
CCOCc1cc(CN2CCCC2)c(O)c2ncccc12 [Compound 18],–,0.93 ± 0.18,5.25 ± 0.18,0.912,1.66,9.27,8.61 ± 1.31,8.73 ± 0.54,8.71,8.51,5.92 ± 2.14,5.62,35.2 ± 11.5,33.1,5.25,7.89 ± 0.03,2.49 ± 0.03,"pKa [2, 22]: 11.21 ± 0.03"
Oc1c(CN2CCN(c3ccccc3)CC2)cc(Cl)c2cccnc12 [Compound 38],–,0.59 ± 0.26,1.87 ± 0.75,0.537,1.91,5.84,3.42 ± 1.17,3.57 ± 1.18,3.39,3.24,6.31 ± 2.64,5.75,7.38 ± 1.23,7.24,1.74,6.21 ± 0.03,1.7 ± 0.1,"pKa ([2]; read-out: pKa (NpiperaziniumH+ closer to quinoline ring), experimentally determined): 10.1 ± 0.03"
"CN1CCN(Cc2ccc3ccccc3c2O)CC1 [Compound 70, 2-((4-Methylpiperazin-1-yl)methyl)naphthalen-1-ol]",79 to 81,> 100,–,–,–,–,> 100,–,–,–,–,–,–,–,–,–,–,–
CN1CCN(Cc2cc(Cl)c3cccnc3c2O)CC1 [Compound 9],–,1.59 ± 0.27,4.3,1.86,1.19,2.84,5.86 ± 0.98,5.14,5.13,5.37,3.55 ± 0.5,6.31,17 ± 1.04,14.5,4.27,9.63 ± 0.03,3.56 ± 0.03,"IC50 (MES-SA/Dx5 cells; Homo sapiens, MES-SA/Dx5, read-out: pIC50 Dx5, absence of TQ (converted), SARM figure): 1.55 µM; IC50 (MES-SA/Dx5 cells; Homo sapiens, MES-SA/Dx5, read-out: pIC50 Dx5_TQ, presence of 1 μM TQ (converted), SARM figure): 6.76 µM; IC50 (MES-SA/Dx5 cells; [16]): 1.9 ± 0.37 µM; IC50 (MES-SA cells; [24]): 5.75 µM; IC50 (MES-SA cells; Homo sapiens, MES-SA, read-out: pIC50 MES-SA_TQ, presence of 1 μM TQ (converted), SARM figure): 10 µM; IC50 (MES-SA cells; [17]): 5.39 ± 0.47 µM; IC50 (A431-B1 cells; [18]): 6.67 ± 2.4 µM; pKa ([2]; read-out: pKa (NpiperaziniumH+ at methyl / N-ethyl), experimentally determined): 5.61 ± 0.03; IC50 (A431 cells; [19]): 15.9 ± 7.44 µM"
"Oc1c(C(c2cccnc2)N2CCCCC2)ccc2cccnc12 (centres unmarked) [Compound 92, 7-((Piperidine-1-yl)(pyridin-3-yl)methyl)quinolin-8-ol]",178 to 179,8.58 ± 0.38,–,8.51,–,1.59,13.65 ± 0.12,–,–,13.5,–,–,–,–,–,–,–,–
"CN1CCN(Cc2cnc3ccccc3c2O)CC1 [Compound 71, 3-((4-Methylpiperazin-1-yl)methyl)quinolin-4-ol]",164 to 166,91,–,91.2,–,1.04,94.9 ± 2.02,–,–,95.5,–,–,–,–,–,–,–,–
Oc1c(CN2CCCCC2)cc(Cl)c2cccnc12 [Compound 19],–,0.29 ± 0.05,2.58,0.282,1.31,8.71,2.49 ± 0.39,3.38,3.39,2.45,1.69 ± 0.27,1.66,6.67 ± 1.69,6.46,2.57,5.8 ± 0.03,< 2,"IC50 (MES-SA cells; [24]): 2.24 µM; pKa [2, 22]: > 11"
"Oc1c(CN2CCc3ccccc3C2)ccc2cccnc12 [Compound 51, 7-((3,4-Dihydroisoquinolin-2(1H)-yl)methyl)quinolin-8-ol]",155 to 157,1.04 ± 0.1,2.16 ± 0.31,1.05,1.37,3.03,3.16 ± 0.41,2.97 ± 0.31,2.95,3.16,2.39 ± 0.02,2.4,4.74 ± 0.04,4.79,2.14,6.24 ± 0.03,3.07 ± 0.03,"IC50 (MES-SA/Dx5 cells; [15]): 1.73 µM; pKa [2, 22]: 10.68 ± 0.03"
"Oc1c(CN2CCc3ccccc3C2)cc(Br)c2cccnc12 [Compound 81, 5-Bromo-7-((3,4-dihydroisoquinolin-2(1H)-yl)methyl)quinolin-8-ol]",156 to 159,0.34 ± 0.05,1.48,0.363,1.82,6.23,2.23 ± 0.15,2.45,1.78,2.29,–,–,–,–,–,–,–,"SR (MES-SA / MES-SA/Dx5) (MES-SA/Dx5 cells; fraction of IC50 in P-gp negative vs positive cells, absence of TQ): 6.50; SR (MES-SA_TQ / Dx5_TQ) (values in parentheses) (MES-SA/Dx5 cells; [14]): 1.66"
